Experimental data as given in patent publication US20250221979A1, “NOVEL HETEROCYCLIC COMPOUND” (SHOUYAO HOLDINGS (BEIJING) CO., LTD., priority 2022, published 2025).
pIC50: −log10 of the molar value.

Molecular target: human MAT2A enzyme (Homo sapiens (Human), UniProt P31153)
Test: In vitro enzymatic inhibition activity assay on MAT2A (PiColorLock phosphate detection)
Assay type: biochemical
Conditions: purified human MAT2A 10 nM, ATP 50 μM, L-methionine 100 μM, 6 h at 23° C.; read-out: MAT2A inhibitory activity IC50
Method: Enzymatic activity assays of compounds of this patent against MAT2A (to detect half inhibitory concentration IC50 values of the compounds) were performed using the phosphate detection kit PiColorLockTM (ab270004, purchased from Abcam). This method utilized the principle that purified human MAT2A enzyme catalyzes the formation of S-adenosylmethionine (SAM) from L-methionine and ATP to release free phosphate, and used the spectrophotometric method to quantify phosphate, so as to determine the enzymatic activity of MAT2A. Compounds were diluted in a 10-fold gradient starting at 1 mM with 100% DMSO (for a total of 8 concentrations) and 2 μL of each concentration was added to 48 μL of reaction buffer (50 mM Tris-HCl PH 7.5, 50 mM KCl, 10 mM MgCl2, 0.01% Brij-35, 0.01% BSA, 1 mM DTT) and mixed well. The final diluted compound was prepared, and 5 μL of MAT2A enzyme (final concentration of 10 nM), 5 μL of ATP (final concentration of 50 μM), and 5 μL of L-methionine (final concentration of 100 μM) were added to each well of a 384-well plate (#3701, purchased from CORNING). After the 384-well plate was placed in the incubator at 23° C. for 6 h, 5 μL of PiColorLock reagent diluted Accelerator (dilution ratio 1:100) was added to each well, and the reaction was stopped by incubating in the incubator at 23° C. for 5 min. 2 μL of Stabiliser was added, the absorbance was read at 630 nm on BMG CLARIOstar, and the IC50 value of the compound was calculated by using GraphPad Prism software.
Under the conditions of this experiment, the inhibition of MAT2A by test compounds can be expressed as an IC50 value for the inhibition of the level of phosphate production during the enzymatic reaction.

human MAT2A enzyme, sequence (P31153 whole entry): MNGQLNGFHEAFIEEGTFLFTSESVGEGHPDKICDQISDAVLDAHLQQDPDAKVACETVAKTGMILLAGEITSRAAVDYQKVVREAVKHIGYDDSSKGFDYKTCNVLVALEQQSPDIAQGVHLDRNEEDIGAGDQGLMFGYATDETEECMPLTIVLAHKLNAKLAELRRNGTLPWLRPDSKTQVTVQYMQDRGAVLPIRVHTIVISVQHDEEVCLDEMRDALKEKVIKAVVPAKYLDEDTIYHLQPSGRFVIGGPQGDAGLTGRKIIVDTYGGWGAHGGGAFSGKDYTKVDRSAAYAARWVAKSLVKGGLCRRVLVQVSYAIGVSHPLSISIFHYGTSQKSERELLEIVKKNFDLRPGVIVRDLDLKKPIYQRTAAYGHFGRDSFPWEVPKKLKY

| pIC50 | SMILES |
| --- | --- |
| 8.64 | N#Cc1c(N)c2ccc(I)cc2n(-c2ccccc2)c1=O [Example 4, 4-amino-7-iodo-2-oxo-1-phenyl-1,2-dihydroquinolin-3-carbonitrile] |
| 8.91 | COC(=O)c1c(N)c2ccc(I)cc2n(-c2ccccc2)c1=O [Example 16, methyl 4-amino-7-iodo-2-oxo-1-phenyl-1,2-dihydroquinoline-3—carboxylate] |
| 8.45 | COC(=O)c1c(N)c2ccc(C(F)(F)F)cc2n(-c2ccccc2)c1=O [Example 17, methyl 4-amino-7-trifluoromethyl-2-oxo-1-phenyl-1,2-dihydroquinoline-3-carboxylate] |
| 8.63 | COC(=O)c1c(N)c2ccc(I)cc2n(-c2ccccc2C)c1=O [Example 19, methyl 4-amino-7-iodo-1-(2-methylphenyl)-2-oxo-1,2-dihydroquinoline-3-carboxylate] |
| 8.22 | COC(=O)c1c(N)c2ccc(I)cc2n(-c2ccccc2Cl)c1=O [Example 20, methyl 4-amino-7-iodo-1-(2-chlorophenyl)-2-oxo-1,2-dihydroquinoline-3-carboxylate] |
| 8.18 | COC(=O)c1c(N)c2ccc(C(F)(F)F)cc2n(-c2cccc(CO)c2)c1=O [Example 21, methyl 4-amino-1-(3-(hydroxymethyl)phenyl)-2-oxo-7-(trifluoromethyl)-1,2-dihydroquinoline-3-carboxylate] |
| 8.63 | C=Cc1ccc2c(N)c(C(=O)OC)c(=O)n(-c3ccccc3)c2c1 [Example 24, methyl 4-amino-7-vinyl-2-oxo-1-phenyl-1,2-dihydroquinoline-3—carboxylate] |
| 9.37 | COC(=O)c1c(N)c2ccc(C(F)(F)F)cc2n(-c2ccc(OC)cc2)c1=O [Example 25, methyl 4-amino-1-(4-methoxyphenyl)-2-oxo-7-(trifluoromethyl)-1,2-dihydro quinoline-3-carboxylate] |
| 8.98 | COC(=O)c1c(N)c2ccc(C(F)(F)F)cc2n(-c2ccc3ccccc3c2)c1=O [Example 26, methyl 4-amino-1-(naphthalen-2-yl)-2-oxo-7-(trifluoromethyl)-1,2-dihydro quinoline-3-carboxylate] |
| 8.44 | COC(=O)c1c(N)c2ccc(I)cc2n(Cc2ccccc2)c1=O [Example 28, methyl 4-amino-1-benzyl-7-iodo-2-oxo-1,2-dihydroquinoline-3-carboxylate] |
| 8.42 | COC(=O)c1c(N)c2ccc(C(F)(F)F)cc2n(Cc2ccccc2)c1=O [Example 29, methyl 4-amino-1-benzyl-2-oxo-7-(trifluoromethyl)-1,2-dihydroquinoline-3-carboxylate] |
| 8.21 | COC(=O)c1c(N)c2ccc(Br)cc2n(Cc2ccccc2)c1=O [Example 30, methyl 4-amino-1-benzyl-7-bromo-2-oxo-1,2-dihydroquinoline-3-carboxylate] |
| 8.07 | Nc1c(C(=O)OC2CC2)c(=O)n(-c2ccccc2)c2cc(Cl)ccc12 [Example 49, cyclopropyl 4-amino-7-chloro-2-oxo-1-phenyl-1,2-dihydroquinolin-3-carboxylate] |
| 8.34 | Nc1c(C(=O)OC2CC2)c(=O)n(-c2ccccc2)c2cc(I)ccc12 [Example 50, cyclopropyl 4-amino-7-iodo-2-oxo-1-phenyl-1,2-dihydroquinolin-3-carboxylate] |
| 8.58 | Nc1c(C(=O)OC2CC2)c(=O)n(-c2ccccc2)c2cc(C(F)(F)F)ccc12 [Example 51, cyclopropyl 4-amino-2-oxo-1-phenyl-7-(trifluoromethyl)-1,2-dihydroquinolin-3-carboxylate] |
| 8.62 | Cc1ccccc1-n1c(=O)c(C(=O)OC2CC2)c(N)c2ccc(I)cc21 [Example 52, cyclopropyl 4-amino-7-iodo-1-(2-methylphenyl)-2-oxo-1,2-dihydroquinolin-3-carboxylate] |
| 8.29 | COC(=O)c1c(N)c2ccc(I)cc2n(-c2cccc3c2CCO3)c1=O [Example 59, methyl 4-amino-1-(2,3-dihydro-1-benzofuran-4-yl)-7-iodo-2-oxo-1,2-dihydro quinoline-3-carboxylate] |
| 8.80 | COC(=O)c1c(N)c2ccc(C(F)(F)F)cc2n(-c2ccc(OC(F)F)cc2)c1=O [Example 63, methyl 4-amino-1-(4-(difluoromethoxy)phenyl)-2-oxo-7-(trifluoromethyl)-1,2-dihydroquinoline-3-carboxylate] |
| 8.17 | COC(=O)c1c(N)c2ccc(C3CC3)cc2n(-c2ccccc2)c1=O [Example 66, methyl 4-amino-7-cyclopropyl-2-oxo-1-phenyl-1,2-dihydroquinoline-3-carboxylate] |
| 8.19 | COC(=O)c1c(N)c2ccc(C(F)(F)F)cc2n(-c2ccccc2Cl)c1=O [Example 69, methyl 4-amino-1-(2-chlorophenyl)-2-oxo-7-(trifluoromethyl)-1,2-dihydro quinoline-3-carboxylate] |
| 8.78 | COC(=O)c1c(N)c2ccc(C3CC3)cc2n(-c2ccc(OC)cc2)c1=O [Example 73, methyl 4-amino-7-cyclopropyl-1-(4-methoxyphenyl)-2-oxo-1-phenyl-1,2-dihydroquinoline-3-carboxylate] |
| 8.77 | COC(=O)c1c(N)c2ccc(C(F)(F)F)cc2n(-c2ccc3nc[nH]c3c2)c1=O [Example 76, methyl 4-amino-1-(3H-benzo[d]imidazol-5-yl)-2-oxo-7-(trifluoromethyl)-1,2-dihydroquinoline-3-carboxylate] |
| 8.57 | COC(=O)c1c(N)c2ccc(Br)cc2n(-c2ccc(F)cc2)c1=O [Example 78, methyl 4-amino-7-bromo-1-(4-fluorophenyl)-2-oxo-1,2-dihydroquinoline-3-carboxylate] |
| 9.21 | COC(=O)c1c(N)c2ccc(I)cc2n(-c2ccc(OC)cc2)c1=O [Example 79, methyl 4-amino-7-iodo-1-(4-methoxyphenyl)-2-oxo-1,2-dihydroquinoline-3-carboxylate] |
| 8.39 | COC(=O)c1c(N)c2ccc(C(F)(F)F)cc2n(-c2ccc(OC)cc2C)c1=O [Example 80, methyl 4-amino-1-(4-methoxy-2-methylphenyl)-2-oxo-7-(trifluoromethyl)-1,2-dihydroquinoline-3-carboxylate] |
| 8.77 | COC(=O)c1c(N)c2ccc(C(F)(F)F)cc2n(-c2ccc(Br)cc2)c1=O [Example 81, methyl 4-amino-1-(4-bromophenyl)-2-oxo-7-(trifluoromethyl)-1,2-dihydro quinoline-3-carboxylate] |
| 8.92 | COC(=O)c1c(N)c2ccc(Br)cc2n(-c2ccc(OC(F)F)cc2)c1=O [Example 83, methyl 4-amino-7-bromo-1-(4-((difluoromethyl)oxy)phenyl)-2-oxo-1,2-dihydroquinoline-3-carboxylate] |
| 8.73 | COC(=O)c1c(N)c2ccc(Br)cc2n(-c2ccc(OC)cc2)c1=O [Example 87, methyl 4-amino-7-bromo-1-(4-methoxyphenyl)-2-oxo-1,2-dihydroquinoline-3-carboxylate] |
| 9.03 | COC(=O)c1c(N)c2ccc(Br)cc2n(-c2ccc(Cl)cc2)c1=O [Example 91, methyl 4-amino-7-bromo-1-(4-chlorophenyl)-2-oxo-1,2-dihydroquinoline-3-carboxylate] |
| 8.13 | COC(=O)c1c(N)c2ccc(C(F)(F)F)cc2n(-c2ccccc2Br)c1=O [Example 93, methyl 4-amino-1-(2-bromophenyl)-2-oxo-7-(trifluoromethyl)-1,2-dihydroquinoline-3-carboxylate] |
